Molecular target: T1, human cloned Kv3.4 channels (Homo sapiens, UniProt Q03721)
T1 construct: expressed in transfected cells
T1 sequence (Q03721 1-635): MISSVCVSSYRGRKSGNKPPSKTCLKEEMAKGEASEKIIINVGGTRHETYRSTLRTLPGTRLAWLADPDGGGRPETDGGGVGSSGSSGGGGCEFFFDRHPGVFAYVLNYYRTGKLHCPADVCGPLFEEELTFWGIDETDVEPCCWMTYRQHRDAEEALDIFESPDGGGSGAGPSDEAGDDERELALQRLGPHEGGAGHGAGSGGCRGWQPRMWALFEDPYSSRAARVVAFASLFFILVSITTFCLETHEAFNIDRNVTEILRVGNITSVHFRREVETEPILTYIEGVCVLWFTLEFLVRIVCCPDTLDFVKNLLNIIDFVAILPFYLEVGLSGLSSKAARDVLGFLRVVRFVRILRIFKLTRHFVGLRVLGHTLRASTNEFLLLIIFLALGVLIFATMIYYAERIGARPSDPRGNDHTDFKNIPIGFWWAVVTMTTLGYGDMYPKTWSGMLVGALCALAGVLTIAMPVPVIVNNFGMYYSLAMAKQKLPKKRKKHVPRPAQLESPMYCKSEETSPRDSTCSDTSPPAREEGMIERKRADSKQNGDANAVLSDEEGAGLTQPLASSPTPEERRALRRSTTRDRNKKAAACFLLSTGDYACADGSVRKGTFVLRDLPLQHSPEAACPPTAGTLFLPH
Assay: Kv3.4 Assay 1 (QPatch HT, HEK293)
Type: cell-based
Settings: 10 µM concentration (N=2)
Protocol: The effect of compounds on human cloned Kv3.4 channels expressed stably in a HEK293 call line was evaluated at room temperature using the QPatch HT® (Sophion Bioscience A/S, Denmark), an automatic parallel patch clamp system. Compounds were evaluated at 10 μM in three cells. The duration of exposure to each test article concentration was 5 minutes.
In preparation for a recording session, intracellular solution was loaded into the intracellular compartments of the QPlate and cell suspension was pipetted into the extracellular compartments. After establishment of a whole-cell configuration, membrane currents were recorded using up to 48 parallel patch clamp amplifiers in the QPatch HT® system. The current records were sampled at 2000 Hz and low-pass Bessel filtered at 400 Hz.
Valid whole-cell recordings met the following criteria: • 1. Seal resistance (Rseal) ≥200 MΩ. • 2. Leak current 25% channel current.

CC[C@@]1(C)NC(=O)N(c2cnc(Oc3ccc(C)c(OC(F)(F)F)c3)nc2)C1=O [Compound 2, (5R)-5-ethyl-5-methyl-3-[2-({4-methyl-3-[(trifluoromethyl)oxy]phenyl}oxy)-5-pyrimidinyl]-2,4-imidazolidinedione]
potentiation of the observed Kv3.4 current: did not potentiate

From US11944623B2, “Modulators of Kv3 channels to treat pain” (Autifony Therapeutics Limited, priority 2015, dated 2024)
